Results published in patent US20050009837A1, “Modulators of lipid metabolism and methods of use” (City of Hope, priority 2003, published 2005).

Experiments:
[1] = molecular target: T1, human LXRα (Homo sapiens, UniProt Q13133); test: Full-length hLXRα/hRXRα LXREx3 TK-Luc reporter assay in transfected CV-1 cells; type: cell-based; conditions: 20 μM, 40 hours
T1 construct: expressed in transfected cells; host or cells: CV-1 cells
T1 sequence (Q13133 1-447): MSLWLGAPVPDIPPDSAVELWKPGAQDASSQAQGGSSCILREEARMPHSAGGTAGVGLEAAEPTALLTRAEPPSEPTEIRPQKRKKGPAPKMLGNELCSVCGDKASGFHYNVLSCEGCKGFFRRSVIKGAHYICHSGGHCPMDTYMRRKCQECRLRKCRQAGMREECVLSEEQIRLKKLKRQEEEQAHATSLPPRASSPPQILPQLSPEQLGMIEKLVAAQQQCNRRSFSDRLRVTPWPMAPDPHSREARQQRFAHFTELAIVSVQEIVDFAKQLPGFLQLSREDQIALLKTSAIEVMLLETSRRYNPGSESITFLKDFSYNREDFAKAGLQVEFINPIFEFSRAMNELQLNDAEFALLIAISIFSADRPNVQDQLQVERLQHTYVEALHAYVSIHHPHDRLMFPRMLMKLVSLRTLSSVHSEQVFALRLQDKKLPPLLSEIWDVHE
T1 sequence (P19793 1-462 partner): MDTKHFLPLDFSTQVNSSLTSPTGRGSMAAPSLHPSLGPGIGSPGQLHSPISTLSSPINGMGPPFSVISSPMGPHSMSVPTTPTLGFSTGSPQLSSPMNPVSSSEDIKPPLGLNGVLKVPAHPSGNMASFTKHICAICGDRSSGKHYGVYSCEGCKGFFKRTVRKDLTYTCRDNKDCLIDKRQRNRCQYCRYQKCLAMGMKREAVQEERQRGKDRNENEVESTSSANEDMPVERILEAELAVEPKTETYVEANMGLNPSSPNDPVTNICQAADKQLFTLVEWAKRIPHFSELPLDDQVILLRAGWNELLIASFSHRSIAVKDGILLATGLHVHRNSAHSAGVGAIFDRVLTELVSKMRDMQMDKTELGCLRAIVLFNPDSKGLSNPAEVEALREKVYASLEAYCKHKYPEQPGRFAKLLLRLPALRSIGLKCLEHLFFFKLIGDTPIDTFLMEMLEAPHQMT
Description: (§1) CV-1 cells were grown in DMEM supplemented with 10% resin-charcoal stripped fetal bovine serum, 50 U/ml penicillin G and 50 μg/ml streptomycin sulfate at 37° C. in 5% CO2. Cells were plated to 50-80% confluence one day prior to transfection using phenol red-free DMEM-FBS. The cells were transfected by lipofection using N-[1-(2,3-dioleoyloxy)propyl]-N,N,N-ammonium methyl sulfate according to manufacturer's instructions (Boehringer Mannheim).
(§2) Genes encoding the following full-length proteins, which are suitable for use in the studies described herein, were cloned into pCMX: human RXRα (Gene Bank accession X52773) and human LXRα (GenBank accession U22662). The cells were transfected with CMX-βgal and luciferase constructs. The CMX-βGal construct contained the ligand binding domain of human RXR (hRXRα) and the ligand binding domain of human LXRα (hLXRα) as indicated in FIG. 1. The luciferase reporter construct (LXREx3 TK-Luc) contained the herpes virus thymidine kinase promoter (−105/+51) linked to three copies of the response element LXRE. After transfection, the cells were treated with 20 μM of a synthetic azole test compound or vehicle alone for 40 hours in phenol red-free DMEM-FBS.

[2] = molecular target: T2, ligand binding domain of LXRα-RXR heterodimers (Homo sapiens, UniProt Q13133); test: LXR ligand binding domain mediated activity, UASGx4 TK-Luc reporter in CV-1 cells; type: cell-based; conditions: 20 μM
T2 construct: expressed in transfected cells; host or cells: CV-1 cells
T2 sequence (Q13133 209-447 limits assumed): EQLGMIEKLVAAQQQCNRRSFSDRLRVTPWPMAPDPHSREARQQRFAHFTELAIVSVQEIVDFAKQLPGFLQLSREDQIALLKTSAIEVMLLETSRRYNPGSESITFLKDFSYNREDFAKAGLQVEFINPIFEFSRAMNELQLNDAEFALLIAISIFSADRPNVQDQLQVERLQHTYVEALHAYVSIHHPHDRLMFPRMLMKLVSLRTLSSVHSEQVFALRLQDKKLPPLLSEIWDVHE
T2 sequence (P19793 227-458 partner limits assumed): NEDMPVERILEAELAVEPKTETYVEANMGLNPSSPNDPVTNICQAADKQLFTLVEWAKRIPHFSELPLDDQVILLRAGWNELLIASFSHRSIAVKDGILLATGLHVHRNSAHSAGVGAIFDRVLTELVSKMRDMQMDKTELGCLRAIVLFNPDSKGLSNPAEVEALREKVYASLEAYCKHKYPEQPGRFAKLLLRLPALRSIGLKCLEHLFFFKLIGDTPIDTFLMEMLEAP
Description: as §1
as §2, with “DMEM-FBS. After exposure to the candidate antagonist compounds, cells were harvested and assayed for luciferase and β-galactosidase activity.” for “DMEM-FBS.”
The reporter gene was UASGx4 TK-Luc.

[3] = molecular target: T3, LXRα-RXR heterodimers / SRC-1 (Homo sapiens, UniProt Q13133); test: In vitro coactivator recruitment/displacement assay (gel), LXRα, RXR, GST-SRC-1, 32P-LXRE probe; type: biochemical; conditions: 10 μM
T3 construct: made in house; host or cells: receptors translated in vitro
Description: This was tested more directly using an in vitro coactivator recruitment/coactivator displacement assay. This assay has the advantage that it is performed with receptors bound to DNA and that it measures a direct interaction between receptor and coactivator with no interference by other proteins that may indirectly stabilize the complex. The assay was performed by mixing in vitro translated LXRα or LXRβ, RXR, 5 μg of purified GST-SRC-1 and a ^32P-labeled LXRE probe with or without 10 μM Clotrimazole according to previously described methods. Wang et al., Mol. Cell 3:543-553, 1999. The complexes then were separated through 5.5% polyacrylamide gels. The probe used represents a DR-4 element derived from the human SREBP-1c promoter (nt 337-361, accession no. AB046200).

[4] = molecular target: human PXR (Homo sapiens, UniProt O75469); conditions: cited from earlier work
Sequence of human PXR (O75469 whole entry): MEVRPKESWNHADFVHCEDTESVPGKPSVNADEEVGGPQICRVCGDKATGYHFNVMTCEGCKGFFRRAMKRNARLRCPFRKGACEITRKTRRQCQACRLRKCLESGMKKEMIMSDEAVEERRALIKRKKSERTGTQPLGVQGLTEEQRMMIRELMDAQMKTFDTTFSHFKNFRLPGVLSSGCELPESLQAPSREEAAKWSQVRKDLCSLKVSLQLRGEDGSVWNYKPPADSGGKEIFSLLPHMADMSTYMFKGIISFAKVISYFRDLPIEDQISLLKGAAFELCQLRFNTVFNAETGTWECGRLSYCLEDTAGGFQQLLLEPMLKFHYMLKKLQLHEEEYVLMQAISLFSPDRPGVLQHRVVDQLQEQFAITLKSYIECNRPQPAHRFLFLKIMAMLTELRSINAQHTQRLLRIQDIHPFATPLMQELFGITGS

- inhibition of constitutive activation by the LXRα-RXR ligand binding domain (UASGx4 TK-Luc) [2]: inhibit constitutive activation
- effect on LXRα-RXR heterodimers (bound to LXRE probe) ([3]; lane 3): no effect
- interaction of LXRα-RXR with SRC-1 ([3]; lane 4): prevented the interaction with SRC-1
Structure (SMILES): Clc1ccccc1C(c1ccccc1)(c1ccccc1)n1ccnc1 [Clotrimazole]
- antagonism of constitutive activation mediated by LXR (hLXRα activity, LXREx3 TK-Luc) [1]: antagonize the constitutive activation mediated by LXR
- activity on human PXR [4]: agonist
